Source: US4147787A, “4,5,6,7-Tetrahydro-thieno[2,3-c]-and [3,2-c]-pyridines, and therapeutic compositions containing the same” (Parcor, priority 1977, dated 1979)

Experiments:
[1] = test system: rat globules (red corpuscles); test: In vitro anti-sludge activity, preventive treatment (protamine sulfate); type: cell-based
Description: (§1) Said activity was investigated in vitro and in vivo in rats.
(§2) Thrice washed rat globules are diluted to 1/250 in physiological saline. In each of 5 tubes are placed 0.6 ml of this suspension and 0.2 ml physiological saline. To each tube is then added 0-25-50-100 and 200 μg, respectively, of the test derivative contained in 0.2 ml solution. After incubation for one hour at 37° C., 0.2 ml of a solution containing 125 μg/ml protamine sulfate are added, after which the tube is then incubated again for 0.5 hour at 37° C. The globules of each tube are then examined with a Mallases cell, and the percent free globules and the percent aggregates formed by 2, 3, 4, 5 etc.. globules is then recorded.

[2] = test system: rat globules (red corpuscles); test: In vitro anti-sludge activity, curative procedure (protamine sulfate); type: cell-based; conditions: 25 μg
Description: as §1, §2
The experiment was repeated according to a "curvative" procedure; the red corpuscles were first contacted with protamine sulfate and, after incubation for 0.5 hour, 0.2 ml containing 25 μg of test derivative were added thereto, which operation is followed by another incubation for one hour at 37° C. The results obtained are reported in Table III, in which the percent agglomerates as a function of size is indicated.

[3] = test system: Collagen-induced blood-platelet aggregation; test: Collagen-induced blood-platelet aggregation; type: in vivo, Wistar rats; conditions: Rattus norvegicus, po; 100 mg/kg orally, rats, 3 hours after treatment; read-out: Percent inhibition of blood-platelet aggregation, Collagen
Description: (§3) A blood sample is taken from the jugular vein of Wistar rats. From this citrated blood and after centifugation, a plasma is reconstituted which contains 600,000 ± 20,000 blood-platelets per ml, which plasma is then used in all aggregation determinations.
(§4) 0.4 ml plasma is placed in a siliconized tube provided with a magnet bar, also siliconized. The tube is introduced into an aggregometer connected to an apparatus which records optical density variations. When light transmission has attained a stable value, 0.5 ml of a solution containing 10 μM A.D.P. (adenosinediphosphate) is added to the tube.
(§5) Blood-platelet aggregation induces an increase of light transmission, followed by a decrease subsequent to the deaggregation phase.
The A.D.P. solution is substituted with a collagen (bovine tendon extract) solution.
(§6) Different groups of 20 rats each are used, each group being orally administered 100 mg/kg of a test derivative.

[4] = test system: A.D.P. induced blood-platelet aggregation; test: A.D.P. induced blood-platelet aggregation; type: in vivo, Wistar rats; conditions: Rattus norvegicus, po; 100 mg/kg orally, rats, 3 hours after treatment, 10 μM A.D.P. solution; read-out: Percent inhibition of blood-platelet aggregation, A.D.P.
Description: as §3, §4, §5, §6

[5] = Acute toxicity (LD50, method according to Miller and Tainter); conditions: mouse, in vivo, mice, intravenous, read-out: LD50 /24h/kg body weight

SMILES: O=C(OCc1ccccc1Cl)C1Cc2sccc2CN1Cc1ccccc1Cl (stereo not drawn) [Example 13, 5-o-Chlorobenzyl-6-o-chlorobenzyloxycarbonyl-4,5,6,7-tetrahydro-thieno[3,2-c]pyridine]
- percent agglomerates, size 2 ([1]; 25 μg): 26%
- percent agglomerates, size 3 ([1]; 25 μg): 9%
- percent agglomerates, size 4 ([1]; 25 μg): 0%
- percent agglomerates, size 5 ([1]; 25 μg): 0%
- percent agglomerates, size 6 ([1]; 25 μg): 0%
- percent agglomerates, size 7 ([1]; 25 μg): 0%
- percent agglomerates, size 8 ([1]; 25 μg): 0%
- percent agglomerates, size 9 ([1]; 25 μg): 0%
- percent agglomerates, size 10 ([1]; 25 μg): 0%
- percent agglomerates, size 11 ([1]; 25 μg): 0%
- percent agglomerates, size 12 ([1]; 25 μg): 0%
- percent agglomerates, size 13 ([1]; 25 μg): 0%
- percent free red corpuscles (size of agglomerates 1) ([1]; 25 μg): 65%
- percent agglomerates, size 2 ([1]; 50 μg): 23%
- percent agglomerates, size 3 ([1]; 50 μg): 5%
- percent agglomerates, size 4 ([1]; 50 μg): 4%
- percent agglomerates, size 5 ([1]; 50 μg): 0%
- percent agglomerates, size 6 ([1]; 50 μg): 0%
- percent agglomerates, size 7 ([1]; 50 μg): 0%
- percent agglomerates, size 8 ([1]; 50 μg): 0%
- percent agglomerates, size 9 ([1]; 50 μg): 0%
- percent agglomerates, size 10 ([1]; 50 μg): 0%
- percent agglomerates, size 11 ([1]; 50 μg): 0%
- percent agglomerates, size 12 ([1]; 50 μg): 0%
- percent agglomerates, size 13 ([1]; 50 μg): 0%
- percent free red corpuscles (size of agglomerates 1) ([1]; 50 μg): 68%
- percent agglomerates, size 2 ([1]; 100 μg): 8%
- percent agglomerates, size 3 ([1]; 100 μg): 3%
- percent agglomerates, size 4 ([1]; 100 μg): 2%
- percent agglomerates, size 5 ([1]; 100 μg): 0%
- percent agglomerates, size 6 ([1]; 100 μg): 0%
- percent agglomerates, size 7 ([1]; 100 μg): 0%
- percent agglomerates, size 8 ([1]; 100 μg): 0%
- percent agglomerates, size 9 ([1]; 100 μg): 0%
- percent agglomerates, size 10 ([1]; 100 μg): 0%
- percent agglomerates, size 11 ([1]; 100 μg): 0%
- percent agglomerates, size 12 ([1]; 100 μg): 0%
- percent agglomerates, size 13 ([1]; 100 μg): 0%
- percent free red corpuscles (size of agglomerates 1) ([1]; 100 μg): 87%
- percent agglomerates, size 2 ([1]; 200 μg): 9%
- percent agglomerates, size 3 ([1]; 200 μg): 1%
- percent agglomerates, size 4 ([1]; 200 μg): 0%
- percent agglomerates, size 5 ([1]; 200 μg): 0%
- percent agglomerates, size 6 ([1]; 200 μg): 0%
- percent agglomerates, size 7 ([1]; 200 μg): 0%
- percent agglomerates, size 8 ([1]; 200 μg): 0%
- percent agglomerates, size 9 ([1]; 200 μg): 0%
- percent agglomerates, size 10 ([1]; 200 μg): 0%
- percent agglomerates, size 11 ([1]; 200 μg): 0%
- percent agglomerates, size 12 ([1]; 200 μg): 0%
- percent agglomerates, size 13 ([1]; 200 μg): 0%
- percent free red corpuscles (size of agglomerates 1) ([1]; 200 μg): 90%
- percent agglomerates, size 2 [2]: 9%
- percent agglomerates, size 3 [2]: 5%
- percent agglomerates, size 4 [2]: 0%
- percent agglomerates, size 5 [2]: 0%
- percent agglomerates, size 6 [2]: 0%
- percent agglomerates, size 7 [2]: 0%
- percent agglomerates, size 8 [2]: 0%
- percent agglomerates, size 9 [2]: 0%
- percent agglomerates, size 10 [2]: 0%
- percent free red corpuscles (size of agglomerates 1) [2]: 86%
- inhibition at 100 mg/kg [3]: 96.1%
- inhibition at 100 mg/kg [4]: 64.4%

SMILES: O=C(O)C1Cc2sccc2CN1Cc1ccccc1Cl (stereo not drawn) [Example 23, 5-o-Chlorobenzyl-6-carboxy-4,5,6,7-tetrahydro-thieno[3,2-c]pyridine]
- percent agglomerates, size 2 ([1]; 25 μg): 21%
- percent agglomerates, size 3 ([1]; 25 μg): 16%
- percent agglomerates, size 4 ([1]; 25 μg): 3%
- percent agglomerates, size 5 ([1]; 25 μg): 0%
- percent agglomerates, size 6 ([1]; 25 μg): 0%
- percent agglomerates, size 7 ([1]; 25 μg): 0%
- percent agglomerates, size 8 ([1]; 25 μg): 0%
- percent agglomerates, size 9 ([1]; 25 μg): 0%
- percent agglomerates, size 10 ([1]; 25 μg): 0%
- percent agglomerates, size 11 ([1]; 25 μg): 0%
- percent agglomerates, size 12 ([1]; 25 μg): 0%
- percent agglomerates, size 13 ([1]; 25 μg): 0%
- percent free red corpuscles (size of agglomerates 1) ([1]; 25 μg): 60%
- percent agglomerates, size 2 ([1]; 50 μg): 25%
- percent agglomerates, size 3 ([1]; 50 μg): 6%
- percent agglomerates, size 4 ([1]; 50 μg): 4%
- percent agglomerates, size 5 ([1]; 50 μg): 0%
- percent agglomerates, size 6 ([1]; 50 μg): 0%
- percent agglomerates, size 7 ([1]; 50 μg): 0%
- percent agglomerates, size 8 ([1]; 50 μg): 0%
- percent agglomerates, size 9 ([1]; 50 μg): 0%
- percent agglomerates, size 10 ([1]; 50 μg): 0%
- percent agglomerates, size 11 ([1]; 50 μg): 0%
- percent agglomerates, size 12 ([1]; 50 μg): 0%
- percent agglomerates, size 13 ([1]; 50 μg): 0%
- percent free red corpuscles (size of agglomerates 1) ([1]; 50 μg): 65%
- percent agglomerates, size 2 ([1]; 100 μg): 14%
- percent agglomerates, size 3 ([1]; 100 μg): 5%
- percent agglomerates, size 4 ([1]; 100 μg): 1%
- percent agglomerates, size 5 ([1]; 100 μg): 0%
- percent agglomerates, size 6 ([1]; 100 μg): 0%
- percent agglomerates, size 7 ([1]; 100 μg): 0%
- percent agglomerates, size 8 ([1]; 100 μg): 0%
- percent agglomerates, size 9 ([1]; 100 μg): 0%
- percent agglomerates, size 10 ([1]; 100 μg): 0%
- percent agglomerates, size 11 ([1]; 100 μg): 0%
- percent agglomerates, size 12 ([1]; 100 μg): 0%
- percent agglomerates, size 13 ([1]; 100 μg): 0%
- percent free red corpuscles (size of agglomerates 1) ([1]; 100 μg): 78%
- percent agglomerates, size 2 ([1]; 200 μg): 11%
- percent agglomerates, size 3 ([1]; 200 μg): 4%
- percent agglomerates, size 4 ([1]; 200 μg): 2%
- percent agglomerates, size 5 ([1]; 200 μg): 0%
- percent agglomerates, size 6 ([1]; 200 μg): 0%
- percent agglomerates, size 7 ([1]; 200 μg): 0%
- percent agglomerates, size 8 ([1]; 200 μg): 0%
- percent agglomerates, size 9 ([1]; 200 μg): 0%
- percent agglomerates, size 10 ([1]; 200 μg): 0%
- percent agglomerates, size 11 ([1]; 200 μg): 0%
- percent agglomerates, size 12 ([1]; 200 μg): 0%
- percent agglomerates, size 13 ([1]; 200 μg): 0%
- percent free red corpuscles (size of agglomerates 1) ([1]; 200 μg): 83%
- LD50 at 24 h [5]: 180 mg/kg
- percent agglomerates, size 2 [2]: 10%
- percent agglomerates, size 3 [2]: 4%
- percent agglomerates, size 4 [2]: 1%
- percent agglomerates, size 5 [2]: 0%
- percent agglomerates, size 6 [2]: 0%
- percent agglomerates, size 7 [2]: 0%
- percent agglomerates, size 8 [2]: 0%
- percent agglomerates, size 9 [2]: 0%
- percent agglomerates, size 10 [2]: 0%
- percent free red corpuscles (size of agglomerates 1) [2]: 85%
- inhibition at 100 mg/kg [3]: 95.2%
- inhibition at 100 mg/kg [4]: 63.9%

SMILES: CN1Cc2ccsc2CC1C(=O)O (stereo not drawn) [Example 25, 5-Methyl-6-carboxy-4,5,6,7-tetrahydro-thieno[3,2-c]pyridine]
- LD50 at 24 h [5]: 325 mg/kg
- inhibition at 100 mg/kg [3]: 92.4%
- inhibition at 100 mg/kg [4]: 61.6%
